Consider one molecule from article PMC4681097 (Chemistry & biology, 2011).

In the assay the target is PHD2_181-426 (Homo sapiens, UniProt Q9GZT9). Nature of the assay: Photo cross-linking of purified PHD2 analysed by MALDI-MS. The class given is binding.
PHD2_181-426, sequence (Q9GZT9 181-426): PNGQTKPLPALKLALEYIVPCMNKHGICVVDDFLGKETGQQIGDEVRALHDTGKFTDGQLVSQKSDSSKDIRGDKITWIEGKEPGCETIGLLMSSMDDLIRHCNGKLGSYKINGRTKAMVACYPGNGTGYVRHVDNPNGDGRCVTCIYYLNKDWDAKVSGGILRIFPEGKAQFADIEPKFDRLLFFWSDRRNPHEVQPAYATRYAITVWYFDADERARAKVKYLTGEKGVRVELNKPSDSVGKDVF

With `O=C(O)CNC(=O)c1nc(Cl)c2ccccc2c1O` [[(1-chloro-4-hydroxyisoquinoline-3-carbonyl)-amino]-acetic acid], the “extent of cross-linking of PHD2 by DR025 in competition experiment” value is recorded as “substantially reduced”.
